How the values were obtained:
[1] = tested on: bees and beneficial insects; settings: field conditions; cited from earlier work
[2] = tested on: ACCase enzyme; assay: Inhibition of ACCase (partially purified enzyme from pheromone glands); assay type: biochemical, Helicoverpa (Heliothis) armigera; settings: in vitro, enzyme from pheromone producing tissue, FIG. 6
Excerpt: The […] enzyme was extracted from pheromone glands separated on TMAE column and the eluted enzyme was used. Acetyl CoA was used as a substrate that requires HCO3^- where radiolabeled HCO3^- was used. In the presence of the enzyme, the substrate will be converted to radiolabeled malonyl CoA (see FIG. 1). Therefore, the difference in the level of incorporation of the radiolabeled malonyl CoA in the presence and absence of the […] enzyme was used to obtain the activity level of endogenous […] in the presence or absence of herbicides (FIG. 6).

[3] = tested on: pheromone glands; assay: de novo pheromone production by isolated pheromone glands in vitro (radiolabel incorporation); assay type: cell-based, Helicoverpa (Heliothis) armigera; settings: for inhibition of Hez-PBAN-activated sex pheromone production: Hez-PBAN 0.05 μM, inhibitor in μM range, FIG. 3
Excerpt: (§1) Two distinct assay systems were applied in order to determine the inhibition of PBAN-induced pheromone production, elicited by aryloxyphenoxy propionates and cyclohexandione oximes such as diclofop, diclofop-methyl and tralkoxydim. The first assay monitors de novo pheromone production by isolated pheromone glands in vitro according to the method of Rafaeli and Gileadi^7 (Experimental Section). The second assay, monitors sex pheromone production in vivo by decapitated female moths that are incapable of pheromone production unless stimulated by PBAN (Experimental section).
Intersegmental membranes (pheromone glands) between the eighth and ninth abdominal segments were removed from 2-3 day old virgin females. After 1 h preincubation in Pipes buffered incubation medium (pH 6.6), pheromone glands were dried on tissue paper and then transferred individually to 10 μl incubation medium containing 0.25 μCi [1-^14C]-acetate (56 mCi/mmole, NEN, Boston, USA) in the presence or absence of Hez-PBAN (Peninsula Labs, Belmont, Calif., USA) and in the additional presence or absence of either diclofop acid or diclofop methyl ester (FIG. 3).
Incubations were performed for 3 h at room temperature. In order to measure the incorporation of radiolabel from [1-^14C] sodium acetate, the glands were extracted in 200 μl hexane for 0.5 h at room temperature and a 100 μl aliquot of the upper hexane phase was measured in a β-counter. Relative levels of incorporation into the pheromone component were determined using HPLC analysis as reported previously^9 using a Vydac C18 reversed phase column and a linear gradient from 40-55% acetonitrile. Fractions were collected every minute and radioactivity determined. The radioactive elution profile (shown in FIG. 8) was compared to known elution times of standard palmitic acid, Z11-hexadecenol and the main pheromone product of H. armigera^10, Z11-hexadecenal (Sigma, USA). In some experiments [1-^14C]-acetyl CoA (Amersham Pharmacia Biotech, UK.) or [9, 10-^3H]-palmitic acid (Life Science Products, Inc, Texas, USA) were substituted for [1-^14C]-acetate in order to measure relative incorporation into pheromone from these precursors. The effect of palmitoyl CoA (Sigma) was also tested in a different set of experiments using [^14C]-acetate as precursor (as shown in FIG. 2).

[4] = tested on: decapitated female moths; assay: sex pheromone production in vivo by decapitated female moths; design: species or system Helicoverpa (Heliothis) armigera; settings: diclofop acid 10 μmol/female, PBAN 1 pmol/female, FIG. 7
Excerpt: as §1
In vivo sex pheromone production by female moths was determined in 2-day old females. The females were decapitated during the photophase of day 1 and subsequently maintained for an additional 24 h, after which they were injected with either physiological saline (control) or 1 pmol/moth Hez-PBAN in saline, and in the additional presence or absence of diclofop acid. Ovipositor tips (containing pheromone glands) were removed 2 h after injection and extracted for 10 min in hexane, containing 25 ng tridecanyl acetate (Sigma, USA) as internal standard. […] Z11-hexadecenal was quantified using the internal standard quantification methods as described previously^9.

In the case of `CC(Oc1ccc(Oc2ccc(Cl)cc2Cl)cc1)C(=O)O` (centres unmarked) [diclofop acid], the “toxicity to bees and beneficial insects” value [1] is listed as “relatively non-toxic”, the “inhibition of partially purified ACCase enzyme activity” value [2] is listed as “may inhibit directly” and the “inhibition of Hez-PBAN-activated sex pheromone production” value ([3]; in vitro) is listed as “significantly inhibits”. The “inhibition of in vivo synthesis of pheromone Z11-hexadecenal induced by PBAN” value [4] was “inhibited the production of the pheromone”.

In the case of `COC(=O)C(C)Oc1ccc(Oc2ccc(Cl)cc2Cl)cc1` (centres unmarked) [diclofop-methyl], the “inhibition of Hez-PBAN-activated sex pheromone production” value ([3]; in vitro) is reported as “significantly inhibits pheromone production to the same extent as the acid”.

For `CCCCCCCCCCCCCCCC(=O)O` [palmitic acid], the “effect on the pheromonotropic action of PBAN” value ([3]; addition of palmitic acid, data not shown) was “did not affect”.

With `CCCCCCCCCCCCCCCC(=O)SCCNC(=O)CCNC(=O)[C@H](O)C(C)(C)COP(=O)(O)OP(=O)(O)OC[C@H]1O[C@@H](n2cnc3c(N)ncnc32)[C@H](O)[C@@H]1OP(=O)(O)O` [palmitoyl-CoA] the “effect on production of pheromone” value ([3]; in vitro, 0.01 μM Hez-PBAN, 14C-acetate, FIG. 2) was “inhibiting its biosynthesis”.

For `CCO/N=C(\CC)C1=C(O)CC(c2c(C)cc(C)cc2C)CC1=O` (centres unmarked) [tralkoxydim], the “concentration at which the inhibitory effect occurs” value ([3]; in vitro, Hez-PBAN 0.01 μM, FIG. 5) was 100 µM.

From patent US20060039943A1, “Acetyl-CoA carboxylase inhibitors for use as pesticides” (Yissum Research Development Company fo the Hebrew University, priority 2003, published 2006)
